According to patent publication US20030156970A1, “Sulphur-free lignin and derivatives thereof for reducing the formation of slime and deposits in industrial plants” (priority 2000, published 2003):

Test system: slime and deposits in paper machine white water
Experiment: Slime and deposit formation in white water tanks, same test record as example 10 (example 12, lignin plus small quantity of biocide)
Set-up: species or system bacteria
Description: The white water originated from the white water I circuit of a paper machine which produces wood-free paper with carbonate filler, used painted rejects and starch for the production of the stock and runs at a slightly alkaline pH. The white water was sampled after a re-start, before any slime combating systems were used. […] Seven tanks were filled with the white water up to the 5-litre mark, the magnetic agitators were switched on, as well as the thermostatically controlled heating systems which were set to 36° C. Weighed slime measuring boards were fully immersed in the liquid. The microbial activity in the test tanks was checked by plating out on bacterial count-Agar from the company of Merck. The additions to the slime check to be compared were diluted in a suitable way and a certain quantity was added to each test tank. After 72 hours the bacterial counts were determined again and the measuring boards covered in slime were carefully weighed. After the measurements after 72 hours the slime measur8ing boards were dried at 105° C. and again weighed in order to determine the dry weight of the stored material. The dried material was then removed from the boards and incinerated in a furnace in porcelain crucibles at 550° C. The ash was weighed back in order to measure the percentage of mineral substances in the original deposits. The whole experiment was repeated with various concentrations of the individual slime combating products.
The same test record as in example 10 was followed, however using the following products

[1] = 70 ppm active (combination 50 + 20), 72 hrs

In the case of `O=[N+]([O-])C(Br)(CO)CO` [bromiumnitropropane diol, 2-bromium-2-nitropropane-1,3-diol], the “Ash content in deposits in % of the solids content of the control” value [1] is reported as 17%, the “Dry weight of the deposit” value [1] is reported as 1.026 g and the “Moist weight of the deposit” value [1] is reported as 1.020 g. For the same molecule, the “Solids content in deposit” value [1] was 12%, the “Solids content in deposits in % of the control” value (70 ppm active (combination 50 + 20), 72 hrs, control = 100) was 23% and the “Bacterial count after 72 hrs” value (addition (active) 70 ppm per volume (combination 50 + 20 ppm), white water 4.7 g/l solids, start count 4.2 × 10^5) was 8.1 × 10^4 CFU/ml.
